Test results from the kinase profiling compilation of Christmann-Franck et al. (2016).

Assays:
Test in all cases: KINOMEscan competition binding
Settings in all cases: compound 0.1 µM
CDK14 (human) = CDK14 (human) (UniProt O94921)
BMPR2 (human) = BMPR2 (human) (UniProt Q13873)
MAPK4 (human) = MAPK4 (human) (UniProt P31152)
[1] = system: FLT3 (human), P36888 [N841I]
PKMYT1 (human) = PKMYT1 (human) (UniProt Q99640)
STK16 (human) = STK16 (human) (UniProt O75716)
ERN1 (human) = ERN1 (human) (UniProt O75460)
Chain of ERN1 (human) (O75460 whole entry, looked up): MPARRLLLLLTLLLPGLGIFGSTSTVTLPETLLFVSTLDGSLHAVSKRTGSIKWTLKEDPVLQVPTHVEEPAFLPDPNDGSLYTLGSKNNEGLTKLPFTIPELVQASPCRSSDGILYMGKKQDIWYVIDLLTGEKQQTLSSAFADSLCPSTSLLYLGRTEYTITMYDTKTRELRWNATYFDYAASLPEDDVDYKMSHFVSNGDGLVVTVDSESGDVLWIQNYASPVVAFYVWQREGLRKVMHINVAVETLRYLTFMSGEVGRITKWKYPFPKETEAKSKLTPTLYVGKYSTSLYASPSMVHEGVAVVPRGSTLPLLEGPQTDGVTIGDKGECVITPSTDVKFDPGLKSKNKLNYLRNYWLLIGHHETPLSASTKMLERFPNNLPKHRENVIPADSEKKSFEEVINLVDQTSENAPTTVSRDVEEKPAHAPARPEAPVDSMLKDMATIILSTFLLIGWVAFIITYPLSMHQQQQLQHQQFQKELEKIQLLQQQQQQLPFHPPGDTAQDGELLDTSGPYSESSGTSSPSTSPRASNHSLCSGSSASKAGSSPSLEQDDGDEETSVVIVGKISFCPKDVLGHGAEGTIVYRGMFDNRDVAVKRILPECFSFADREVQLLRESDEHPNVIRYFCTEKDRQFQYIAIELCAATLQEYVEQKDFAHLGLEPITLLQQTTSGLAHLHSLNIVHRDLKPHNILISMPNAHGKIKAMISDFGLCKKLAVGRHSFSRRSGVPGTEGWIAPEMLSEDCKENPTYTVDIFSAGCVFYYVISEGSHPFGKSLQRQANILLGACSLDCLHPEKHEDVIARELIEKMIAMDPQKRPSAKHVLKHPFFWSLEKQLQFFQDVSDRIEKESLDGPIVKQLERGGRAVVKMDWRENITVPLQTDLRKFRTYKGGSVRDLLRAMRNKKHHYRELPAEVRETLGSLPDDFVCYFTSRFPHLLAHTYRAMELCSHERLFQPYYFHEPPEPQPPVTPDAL

PRKCI (human) = PRKCI (human) (UniProt P41743)
TNIK (human) = TNIK (human) (UniProt Q9UKE5)
Chain of TNIK (human) (Q9UKE5 whole entry, looked up): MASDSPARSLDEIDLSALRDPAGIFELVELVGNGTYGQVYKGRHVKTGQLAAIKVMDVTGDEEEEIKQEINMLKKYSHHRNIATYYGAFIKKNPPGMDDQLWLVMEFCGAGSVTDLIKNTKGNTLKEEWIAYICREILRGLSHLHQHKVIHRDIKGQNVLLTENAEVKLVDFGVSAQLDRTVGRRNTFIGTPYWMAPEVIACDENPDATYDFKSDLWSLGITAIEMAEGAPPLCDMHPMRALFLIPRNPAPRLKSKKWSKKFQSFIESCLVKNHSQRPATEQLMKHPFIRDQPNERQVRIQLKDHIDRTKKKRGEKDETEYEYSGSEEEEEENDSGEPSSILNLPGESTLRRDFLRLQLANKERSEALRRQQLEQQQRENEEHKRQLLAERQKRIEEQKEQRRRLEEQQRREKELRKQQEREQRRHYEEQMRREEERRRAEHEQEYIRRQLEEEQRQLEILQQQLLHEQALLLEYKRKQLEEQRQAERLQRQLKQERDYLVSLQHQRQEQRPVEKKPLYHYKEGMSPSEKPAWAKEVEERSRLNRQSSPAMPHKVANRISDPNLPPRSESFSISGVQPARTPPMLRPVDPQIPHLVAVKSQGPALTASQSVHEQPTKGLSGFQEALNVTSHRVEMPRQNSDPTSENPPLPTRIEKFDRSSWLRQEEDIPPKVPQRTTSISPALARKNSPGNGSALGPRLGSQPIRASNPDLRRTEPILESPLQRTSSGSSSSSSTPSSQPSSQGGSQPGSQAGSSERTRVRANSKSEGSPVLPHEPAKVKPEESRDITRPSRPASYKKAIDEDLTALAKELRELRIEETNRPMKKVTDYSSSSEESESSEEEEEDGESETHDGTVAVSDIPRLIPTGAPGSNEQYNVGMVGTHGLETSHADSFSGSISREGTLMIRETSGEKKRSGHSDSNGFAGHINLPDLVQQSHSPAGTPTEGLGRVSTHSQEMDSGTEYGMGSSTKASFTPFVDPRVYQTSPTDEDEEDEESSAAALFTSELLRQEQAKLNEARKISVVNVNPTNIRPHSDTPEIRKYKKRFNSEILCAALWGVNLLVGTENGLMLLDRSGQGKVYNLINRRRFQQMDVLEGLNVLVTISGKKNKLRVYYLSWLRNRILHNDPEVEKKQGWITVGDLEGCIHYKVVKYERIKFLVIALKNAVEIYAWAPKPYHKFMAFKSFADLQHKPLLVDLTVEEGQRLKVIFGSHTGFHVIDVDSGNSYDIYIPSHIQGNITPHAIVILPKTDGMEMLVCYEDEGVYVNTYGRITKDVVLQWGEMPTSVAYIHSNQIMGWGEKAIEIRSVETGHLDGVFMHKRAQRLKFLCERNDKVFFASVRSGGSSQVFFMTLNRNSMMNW

CPK1 (P.falciparum) = system: CPK1 (P.falciparum)
PRKCQ (human) = PRKCQ (human) (UniProt Q04759)
MYLK2 (human) = MYLK2 (human) (UniProt Q9H1R3)
RIOK3 (human) = RIOK3 (human) (UniProt O14730)
[2] = system: MET (human), P08581 [M1250T]
DYRK2 (human) = DYRK2 (human) (UniProt Q92630)
DAPK3 (human) = DAPK3 (human) (UniProt O43293)
TAOK3 (human) = TAOK3 (human) (UniProt Q9H2K8)
STK24 (human) = STK24 (human) (UniProt Q9Y6E0)
MAP2K1 (human) = MAP2K1 (human) (UniProt Q02750)
PIK3C2B (human) = PIK3C2B (human) (UniProt O00750)
NEK3 (human) = NEK3 (human) (UniProt P51956)
Chain of NEK3 (human) (P51956 whole entry, looked up): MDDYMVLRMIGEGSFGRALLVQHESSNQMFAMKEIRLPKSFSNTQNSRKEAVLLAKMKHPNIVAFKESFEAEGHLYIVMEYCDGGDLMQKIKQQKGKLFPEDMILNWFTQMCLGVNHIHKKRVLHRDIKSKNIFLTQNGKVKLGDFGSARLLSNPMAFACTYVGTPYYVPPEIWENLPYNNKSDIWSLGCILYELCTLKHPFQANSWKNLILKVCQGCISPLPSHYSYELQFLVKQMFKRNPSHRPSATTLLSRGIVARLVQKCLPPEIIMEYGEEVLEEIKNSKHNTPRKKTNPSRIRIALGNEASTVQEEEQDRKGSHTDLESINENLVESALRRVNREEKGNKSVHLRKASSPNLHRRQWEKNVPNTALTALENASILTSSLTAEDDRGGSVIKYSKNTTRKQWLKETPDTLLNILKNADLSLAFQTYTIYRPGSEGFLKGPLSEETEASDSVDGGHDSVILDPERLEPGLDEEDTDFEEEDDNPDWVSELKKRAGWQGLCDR

[3] = system: RET (human), P07949 [V804L]
EPHB1 (human) = EPHB1 (human) (UniProt P54762)
SGK1 (human) = SGK1 (human) (UniProt O00141)
HIPK2 (human) = HIPK2 (human) (UniProt Q9H2X6)
EIF2AK1 (human) = EIF2AK1 (human) (UniProt Q9BQI3)
MKNK2 (human) = MKNK2 (human) (UniProt Q9HBH9)
MAP2K7 (human) = MAP2K7 (human) (UniProt O14733)
CSNK1G1 (human) = CSNK1G1 (human) (UniProt Q9HCP0)
[4] = system: KIT (human), P10721 [V559D]
[5] = system: PIK3CA (human), P42336 [I800L]
TAOK1 (human) = TAOK1 (human) (UniProt Q7L7X3)
PRKD2 (human) = PRKD2 (human) (UniProt Q9BZL6)
CDK19 (human) = CDK19 (human) (UniProt Q9BWU1)
ADCK4 (human) = ADCK4 (human) (UniProt Q96D53)
GSG2 (human) = GSG2 (human) (UniProt Q8TF76)
[6] = system: ABL1 (human), P00519 [H396P]
CHEK1 (human) = CHEK1 (human) (UniProt O14757)
STK17A (human) = STK17A (human) (UniProt Q9UEE5)
RIPK4 (human) = RIPK4 (human) (UniProt P57078)
EPHA5 (human) = EPHA5 (human) (UniProt P54756)

Chain of CDK14 (human) (O94921 whole entry, looked up): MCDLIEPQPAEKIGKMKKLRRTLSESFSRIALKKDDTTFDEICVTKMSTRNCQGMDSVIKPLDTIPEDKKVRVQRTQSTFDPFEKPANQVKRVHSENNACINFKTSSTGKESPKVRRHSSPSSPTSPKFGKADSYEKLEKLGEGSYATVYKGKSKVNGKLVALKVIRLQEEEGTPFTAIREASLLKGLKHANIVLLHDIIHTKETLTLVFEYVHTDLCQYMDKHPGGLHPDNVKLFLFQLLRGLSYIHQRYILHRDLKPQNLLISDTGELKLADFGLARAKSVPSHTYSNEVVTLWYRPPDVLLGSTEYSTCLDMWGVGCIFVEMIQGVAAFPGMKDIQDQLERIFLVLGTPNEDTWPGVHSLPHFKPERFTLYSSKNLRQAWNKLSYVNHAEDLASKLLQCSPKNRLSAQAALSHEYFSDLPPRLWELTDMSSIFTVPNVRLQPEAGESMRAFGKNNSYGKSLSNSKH
Chain of MAPK4 (human) (P31152 whole entry, looked up): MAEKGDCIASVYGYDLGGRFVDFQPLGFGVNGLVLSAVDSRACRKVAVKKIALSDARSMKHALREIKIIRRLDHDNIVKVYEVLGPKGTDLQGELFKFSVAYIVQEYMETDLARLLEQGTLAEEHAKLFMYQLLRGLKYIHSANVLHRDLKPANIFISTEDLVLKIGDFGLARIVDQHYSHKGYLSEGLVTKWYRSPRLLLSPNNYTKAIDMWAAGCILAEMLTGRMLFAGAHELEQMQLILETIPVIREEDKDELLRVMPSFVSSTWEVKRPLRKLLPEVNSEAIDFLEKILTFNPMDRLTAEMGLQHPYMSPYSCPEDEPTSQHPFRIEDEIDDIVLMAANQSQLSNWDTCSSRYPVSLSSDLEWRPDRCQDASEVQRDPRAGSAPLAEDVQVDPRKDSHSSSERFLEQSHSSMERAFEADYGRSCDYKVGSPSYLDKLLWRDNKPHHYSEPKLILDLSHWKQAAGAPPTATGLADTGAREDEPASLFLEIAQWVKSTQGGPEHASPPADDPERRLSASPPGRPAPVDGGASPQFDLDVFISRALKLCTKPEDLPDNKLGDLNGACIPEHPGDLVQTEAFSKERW
Chain of BMPR2 (human) (Q13873 whole entry, looked up): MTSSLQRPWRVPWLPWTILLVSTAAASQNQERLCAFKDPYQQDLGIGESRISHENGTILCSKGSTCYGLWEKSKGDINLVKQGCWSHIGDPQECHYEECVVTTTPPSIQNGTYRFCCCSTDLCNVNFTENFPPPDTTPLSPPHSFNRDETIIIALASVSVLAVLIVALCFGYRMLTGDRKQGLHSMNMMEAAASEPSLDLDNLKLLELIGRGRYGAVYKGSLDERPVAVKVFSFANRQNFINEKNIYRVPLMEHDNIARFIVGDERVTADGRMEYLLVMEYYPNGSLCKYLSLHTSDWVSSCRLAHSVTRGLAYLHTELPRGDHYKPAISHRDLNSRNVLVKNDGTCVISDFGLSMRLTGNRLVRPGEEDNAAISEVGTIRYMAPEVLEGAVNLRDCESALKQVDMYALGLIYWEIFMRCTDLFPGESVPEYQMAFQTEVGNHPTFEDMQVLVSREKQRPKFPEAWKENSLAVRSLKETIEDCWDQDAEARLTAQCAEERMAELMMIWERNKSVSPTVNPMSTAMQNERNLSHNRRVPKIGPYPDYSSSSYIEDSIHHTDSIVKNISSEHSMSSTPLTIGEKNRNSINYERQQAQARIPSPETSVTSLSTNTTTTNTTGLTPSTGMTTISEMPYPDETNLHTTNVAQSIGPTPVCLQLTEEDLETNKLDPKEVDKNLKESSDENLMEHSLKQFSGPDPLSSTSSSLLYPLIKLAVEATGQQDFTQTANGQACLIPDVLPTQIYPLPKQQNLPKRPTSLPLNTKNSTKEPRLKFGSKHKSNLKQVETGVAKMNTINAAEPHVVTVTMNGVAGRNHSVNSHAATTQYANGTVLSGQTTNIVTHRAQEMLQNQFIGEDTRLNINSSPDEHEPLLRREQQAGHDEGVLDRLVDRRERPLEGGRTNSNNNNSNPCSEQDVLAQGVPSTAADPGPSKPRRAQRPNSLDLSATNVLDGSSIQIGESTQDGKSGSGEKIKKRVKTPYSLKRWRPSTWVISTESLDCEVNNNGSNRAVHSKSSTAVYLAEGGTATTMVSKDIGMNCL

`CCc1ccc(C(=O)Nc2cc(CN3CCN(C)CC3)cc(C(F)(F)F)c2)cc1C#Cc1cnc2ccnn2c1` was tested, and the kinase still bound, per cent of control (CDK14 (human)) was 81%, the kinase still bound, per cent of control (BMPR2 (human)) was 90% and the kinase still bound, per cent of control (MAPK4 (human)) was 90%. It also gave a kinase still bound, per cent of control [1] of 100%, a kinase still bound, per cent of control (PKMYT1 (human)) of 100% and a kinase still bound, per cent of control (STK16 (human)) of 71%. It also gave a kinase still bound, per cent of control (ERN1 (human)) of 100%, a kinase still bound, per cent of control (PRKCI (human)) of 100% and a kinase still bound, per cent of control (TNIK (human)) of 84%. The kinase still bound, per cent of control (CPK1 (P.falciparum)) was 100%, the kinase still bound, per cent of control (PRKCQ (human)) was 80% and the kinase still bound, per cent of control (MYLK2 (human)) was 100%. The kinase still bound, per cent of control (RIOK3 (human)) was 64%, the kinase still bound, per cent of control [2] was 85% and the kinase still bound, per cent of control (DYRK2 (human)) was 86%. For the same molecule, the kinase still bound, per cent of control (DAPK3 (human)) was 80%, the kinase still bound, per cent of control (TAOK3 (human)) was 100% and the kinase still bound, per cent of control (STK24 (human)) was 100%. For the same molecule, the kinase still bound, per cent of control (MAP2K1 (human)) was 100%, the kinase still bound, per cent of control (PIK3C2B (human)) was 100% and the kinase still bound, per cent of control (NEK3 (human)) was 78%. The kinase still bound, per cent of control [3] was 86%, the kinase still bound, per cent of control (EPHB1 (human)) was 96% and the kinase still bound, per cent of control (SGK1 (human)) was 93%. For the same molecule, the kinase still bound, per cent of control (HIPK2 (human)) was 100%, the kinase still bound, per cent of control (EIF2AK1 (human)) was 100% and the kinase still bound, per cent of control (MKNK2 (human)) was 100%. The kinase still bound, per cent of control (MAP2K7 (human)) was 100%, the kinase still bound, per cent of control (CSNK1G1 (human)) was 85% and the kinase still bound, per cent of control [4] was 24%. It also gave a kinase still bound, per cent of control [5] of 100%, a kinase still bound, per cent of control (TAOK1 (human)) of 100% and a kinase still bound, per cent of control (PRKD2 (human)) of 100%. For the same molecule, the kinase still bound, per cent of control (CDK19 (human)) was 90%, the kinase still bound, per cent of control (ADCK4 (human)) was 100% and the kinase still bound, per cent of control (GSG2 (human)) was 75%. The kinase still bound, per cent of control [6] was 100%, the kinase still bound, per cent of control (CHEK1 (human)) was 100% and the kinase still bound, per cent of control (STK17A (human)) was 100%. For the same molecule, the kinase still bound, per cent of control (RIPK4 (human)) was 100% and the kinase still bound, per cent of control (EPHA5 (human)) was 100%.
